Experimental data as given in patent publication US20230338564A1, “NEODEGRADER CONJUGATES” (Orum Therapeutics, Inc., priority 2020, published 2023).

Columns and labels:
[1] = tested on: Ramos (non-Hodgkins lymphoma) cell line; assay: In vitro antiproliferation assay, General Procedure 1 (WST-8); assay type: cell-based; conditions: Ramos cells; rituximab neoDegrader conjugates versus comparators; FIG. 13
Procedure: (§1) The ability of neoDegrader conjugates to inhibit cell growth was measured using in vitro anti-proliferation assay. […] Conjugates were diluted in complete cell growth medium using 4-fold serial dilutions and 100 µL was added per well. […] Viability of remaining cells was determined by colorimetric WST-8 assay (Dojindo Molecular Technologies, Inc., Rockville, MD, US). WST-8 was added to 10% of the final volume and plates were incubated at 37° C. in a humidified 5% CO2 incubator for 2-4 hours. Plates were analyzed by measuring the absorbance at 450 nm (A450) in a multi-well plate reader. Background A450 absorbance of wells with media and WST-8 only was subtracted from all values. The percent viability was calculated by dividing each treated sample value by the average value of wells with untreated cells. The percent viability value was plotted against the test sample concentration in a semi-log plot for each treatment. IC50 values were calculated automatically.

[2] = tested on: BT-474 breast cancer cell line; assay: as above; assay type: cell-based; conditions: Homo sapiens, BT-474, read-out: IC50, BT-474, conjugates DAR 8, comparators DAR not given
Procedure: as §1

[3] = tested on: SK-BR-3 breast cancer cell line; assay: as above; assay type: cell-based; conditions: SK-BR-3 cells; neoDegrader conjugates (DAR 8) versus comparators; FIGS. 7 and 8
Procedure: as §1

[4] = tested on: EOL-1 cell line; assay: In vitro antiproliferation assay, General Procedure 2 (CCK-8); assay type: cell-based, human; conditions: Homo sapiens, EOL1; Acute myeloid leukemia; read-out: IC50, EOL-1
Source text: (§2) Cell Culture: Cell lines were obtained from the American Type Culture Collection (ATCC, Manassas, VA, USA) or Deutsche Sammlung von Mikroorganismen und Zellkulturen (DSMZ, Braunschweig, Germany) and maintained according to the culturing conditions specified by ATCC or DSMZ. Cells were thawed out and maintained in culture for at least two passages before proceeding with experimental conditions.
(§3) Cytotoxicity assays: For adherent cell lines, the cells were dissociated with enzyme-free PBS-based cell dissociation buffer (Gibco, USA) and plated on tissue culture treated 96-well flat bottom polystyrene plates (Costar, Corning, USA) at appropriate cell densities depending on doubling time of the cells. 18 hours after plating, cells were treated with test articles at appropriate concentrations starting at 100 nM and diluted in 4-fold serial dilutions. For suspension cell lines, the cells were seeded on the same day of treatment and cells were treated as described above. Adherent cells were treated for 5 days and suspension cells were treated for 3 days. Cell proliferation was assessed using the Cell Counting Kit-8 (CCK-8, Dojindo Laboratories, Japan) and measurements were obtained using the Promega GloMax Discover plate reader (Promega, USA). Data were analyzed using GraphPad Prism software (GraphPad Software, San Diego, CA). All data points were obtained from technical triplicates and the experiments were validated using three biological replicates.

[5] = tested on: OCI-M1 cell line; assay: as above; assay type: cell-based; conditions: Acute myeloid leukemia
Source text: as §2, §3

[6] = tested on: MOLM13 cell line; assay: as above; assay type: cell-based; conditions: Homo sapiens, MOLM-13; AML; read-out: IC50, MOLM13
Source text: as §2, §3

[7] = tested on: AGS cell line; assay: as above; assay type: cell-based; conditions: Homo sapiens, Gastric
Source text: as §2, §3

[8] = tested on: SKM-1 cell line; assay: as above; assay type: cell-based; conditions: Homo sapiens, SKM-1; Acute myeloid leukemia; read-out: IC50, SKM-1
Source text: as §2, §3

[9] = tested on: OCI-AML4 cell line; assay: as above; assay type: cell-based; conditions: Acute myeloid leukemia; read-out: IC50, OCI-AML4
Source text: as §2, §3

[10] = tested on: THLE2 cell line; assay: as above; assay type: cell-based; conditions: THLE-2; Human liver normal
Source text: as §2, §3

[11] = tested on: SK-BR-3 cell line; assay: as above; assay type: cell-based; conditions: Homo sapiens, Breast, read-out: IC50, SKBR3
Source text: as §2, §3

[12] = tested on: KE39 cell line; assay: as above; assay type: cell-based; conditions: Gastric
Source text: as §2, §3

[13] = tested on: Daudi cell line; assay: as above; assay type: cell-based; conditions: Homo sapiens, NHL
Source text: as §2, §3

[14] = tested on: SKOV3 cell line; assay: as above; assay type: cell-based; conditions: Homo sapiens, SK-OV-3; Ovarian
Source text: as §2, §3

[15] = tested on: OCI-AML2 cell line; assay: as above; assay type: cell-based; conditions: Homo sapiens, OCI-AML2; Acute myeloid leukemia; read-out: IC50, OCI-AML2
Source text: as §2, §3

[16] = tested on: JHUEM3 cell line; assay: as above; assay type: cell-based; conditions: Endometrial
Source text: as §2, §3

[17] = tested on: SU-DHL-8 cell line; assay: as above; assay type: cell-based; conditions: Homo sapiens, NHL
Source text: as §2, §3

[18] = tested on: RPMI7951 cell line; assay: as above; assay type: cell-based; conditions: Homo sapiens, RPMI-7951; Skin
Source text: as §2, §3

[19] = tested on: PL-21 cell line; assay: as above; assay type: cell-based; conditions: Acute myeloid leukemia
Source text: as §2, §3

[20] = tested on: THP-1 cell line; assay: as above; assay type: cell-based; conditions: Homo sapiens, AML
Source text: as §2, §3

[21] = tested on: LOVO cell line; assay: as above; assay type: cell-based; conditions: Homo sapiens, Colon
Source text: as §2, §3

[22] = tested on: ML-2 cell line; assay: as above; assay type: cell-based; conditions: Homo sapiens, ML-2; Acute myelomonocytic leukemia; read-out: IC50, ML-2
Source text: as §2, §3

[23] = tested on: CMK cell line; assay: as above; assay type: cell-based; conditions: Homo sapiens, Acute megakaryocytic leukemia
Source text: as §2, §3

[24] = tested on: OCI-M2 cell line; assay: as above; assay type: cell-based; conditions: Acute myelocytic leukemia
Source text: as §2, §3

[25] = tested on: SNU182 cell line; assay: as above; assay type: cell-based; conditions: Homo sapiens, SNU-182; Liver
Source text: as §2, §3

[26] = tested on: Molp8 cell line; assay: as above; assay type: cell-based; conditions: Homo sapiens, MOLP-8; MM
Source text: as §2, §3

[27] = tested on: MV4-11 cell line; assay: as above; assay type: cell-based; conditions: Homo sapiens, MV4-11; Biphenotypic B myelomonocytic leukemia; read-out: IC50, MV4-11
Source text: as §2, §3

[28] = tested on: BT-474 cell line; assay: as above; assay type: cell-based; conditions: Homo sapiens, Breast, read-out: IC50, BT474
Source text: as §2, §3

[29] = tested on: NB-4 cell line; assay: as above; assay type: cell-based; conditions: Homo sapiens, Acute promyelocytic leukemia
Source text: as §2, §3

[30] = tested on: U251MG cell line; assay: as above; assay type: cell-based; conditions: Homo sapiens, U-251; Brain
Source text: as §2, §3

[31] = tested on: HL-60 cell line; assay: as above; assay type: cell-based; conditions: Homo sapiens, HL-60; AML; read-out: IC50, HL-60
Source text: as §2, §3

[32] = tested on: RD-ES cell line; assay: as above; assay type: cell-based; conditions: Ewing’s sarcoma
Source text: as §2, §3

[33] = tested on: HL-60 (acute myeloid leukemia) cell line; assay: In vitro antiproliferation assay, General Procedure 1 (WST-8); assay type: cell-based; conditions: AML; conjugates DAR 8, Mylotarg DAR not given
Procedure: as §1

CNc1ccccc1NC(=O)NCc1ccc2c(c1)CN(C1CCC(=O)NC1=O)C2=O (stereo not shown) [Compound P4, 3-[[2-(2,6-dioxopiperidin-3-yl)-1-oxo-3H-isoindol-5-yl]methyl]-1-[2-(methylamino)phenyl]urea]
antiproliferative activity compared, in words [1]: less active
IC50 [2]: 2.9 nM
anti-proliferative activity compared, in words [3]: significantly less active
IC50 [4]: 1.88 nM
IC50 [5]: 124 nM
IC50 [6]: 9.5 nM
IC50 [7]: 650 nM
IC50 [8]: 3.77 nM
IC50 [9]: 16.9 nM
IC50 [10]: 6.27 nM
IC50 [11]: 64.6 nM
IC50 [12]: 119 nM
IC50 [13]: 14.3 nM
IC50 [14]: 138 nM
IC50 [15]: > 1000 nM
IC50 [16]: 58.6 nM
IC50 [17]: 19.8 nM
IC50 [18]: 30.2 nM
IC50 [19]: 2.28 nM
IC50 [20]: 85 nM
IC50 [21]: 119 nM
IC50 [22]: 1.27 nM
IC50 [23]: 1000 nM
IC50 [24]: 20.9 nM
IC50 [25]: 13 nM
IC50 [26]: 7.42 nM
IC50 [27]: 1.91 nM
IC50 [28]: 2.9 nM
IC50 [29]: 2.63 nM
IC50 [30]: 46 nM
IC50 [31]: 5.45 nM

B1: Ontuxizumab-Compound (Ia) (conjugate, chains of the INN, looked up)
VH: QVQLQESGPGLVRPSQTLSLTCTASGYTFTDYVIHWVKQPPGRGLEWIGYINPYDDDTTYNQKFKGRVTMLVDTSSNTAYLRLSSVTAEDTAVYYCARRGNSYDGYFDYSMDYWGSGTPVTVSS
VL: DIQMTQSPSSLSASVGDRVTITCRASQNVGTAVAWLQQTPGKAPKLLIYSASNRYTGVPSRFSGSGSGTDYTFTISSLQPEDIATYYCQQYTNYPMYTFGQGTKVQIK
modifications: conjugated to Compound (Ia)
IC50 [32]: 0.0273 nM

B2: Lintuzumab IgG1-Compound (Ia) (conjugate, chains of the INN, looked up)
VH: QVQLVQSGAEVKKPGSSVKVSCKASGYTFTDYNMHWVRQAPGQGLEWIGYIYPYNGGTGYNQKFKSKATITADESTNTAYMELSSLRSEDTAVYYCARGRPAMDYWGQGTLVTVSS
VL: DIQMTQSPSSLSASVGDRVTITCRASESVDNYGISFMNWFQQKPGKAPKLLIYAASNQGSGVPSRFSGSGSGTDFTLTISSLQPDDFATYYCQQSKEVPWTFGQGTKVEIK
modifications: IgG1 conjugated to Compound (Ia)
IC50 [33]: 0.012 nM

B3: Lintuzumab IgG1-Compound (Id) (conjugate, chains of the INN, looked up)
VH: B2 VH
VL: B2 VL
modifications: IgG1 conjugated to Compound (Id)
IC50 [33]: > 0.05 nM
